Results on 20 compounds are retold here after patent US9045445B2, “Glycine transporter-1 inhibitors, methods of making them, and uses thereof” (Albany Molecular Research, Inc., priority 2010, dated 2015).

Counter-ions that a name gives are not always drawn. Like-named read-outs stand apart in the source and are kept apart here.

Assay [1] deals with T1, glycine transporter-1 (GlyT-1) (Homo sapiens, UniProt P48067).
T1 construct: JAR cells (ATCC#HTB-144), which endogenously express GlyT-1; host or cells: JAR human choriocarcinoma cells
T1 sequence (P48067 1-706): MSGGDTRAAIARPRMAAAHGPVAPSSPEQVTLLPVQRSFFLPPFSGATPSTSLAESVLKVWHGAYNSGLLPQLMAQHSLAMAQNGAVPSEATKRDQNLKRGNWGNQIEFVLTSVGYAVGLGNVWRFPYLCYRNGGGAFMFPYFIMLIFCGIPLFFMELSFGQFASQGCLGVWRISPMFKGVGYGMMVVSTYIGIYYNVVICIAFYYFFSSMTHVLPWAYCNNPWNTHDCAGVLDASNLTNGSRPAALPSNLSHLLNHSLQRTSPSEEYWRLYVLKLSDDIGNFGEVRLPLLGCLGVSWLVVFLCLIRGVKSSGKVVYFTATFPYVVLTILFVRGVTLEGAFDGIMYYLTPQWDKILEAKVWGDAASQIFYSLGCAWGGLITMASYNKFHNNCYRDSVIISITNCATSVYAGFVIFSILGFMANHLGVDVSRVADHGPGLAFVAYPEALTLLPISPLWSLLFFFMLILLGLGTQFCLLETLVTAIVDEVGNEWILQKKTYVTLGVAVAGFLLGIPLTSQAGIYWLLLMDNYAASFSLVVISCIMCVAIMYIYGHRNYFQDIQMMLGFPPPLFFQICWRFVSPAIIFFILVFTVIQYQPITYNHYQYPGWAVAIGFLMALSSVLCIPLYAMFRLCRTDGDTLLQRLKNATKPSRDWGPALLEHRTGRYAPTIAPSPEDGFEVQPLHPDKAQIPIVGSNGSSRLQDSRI
Kind of assay: [14C]glycine uptake assay in JAR cells endogenously expressing GlyT-1 (scintillation proximity). The assay is classed as cell-based. The essentials: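 IC50 comes from a four-parameter fit of nine-point, duplicate curves measuring inhibition of 5 μM [14C]glycine uptake, read by scintillation proximity after 3 h at 37 °C. Cells are human JAR, which express GlyT-1 endogenously, given 10 min compound pre-treatment in pH 7.4 buffer with 5 mM alanine and 0.75% DMSO.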

The target of assay [2] is T2, glycine transporter-2 (GlyT-2) (Homo sapiens, UniProt Q9Y345).
T2 construct: expressed in transfected cells
T2 sequence (Q9Y345 1-797): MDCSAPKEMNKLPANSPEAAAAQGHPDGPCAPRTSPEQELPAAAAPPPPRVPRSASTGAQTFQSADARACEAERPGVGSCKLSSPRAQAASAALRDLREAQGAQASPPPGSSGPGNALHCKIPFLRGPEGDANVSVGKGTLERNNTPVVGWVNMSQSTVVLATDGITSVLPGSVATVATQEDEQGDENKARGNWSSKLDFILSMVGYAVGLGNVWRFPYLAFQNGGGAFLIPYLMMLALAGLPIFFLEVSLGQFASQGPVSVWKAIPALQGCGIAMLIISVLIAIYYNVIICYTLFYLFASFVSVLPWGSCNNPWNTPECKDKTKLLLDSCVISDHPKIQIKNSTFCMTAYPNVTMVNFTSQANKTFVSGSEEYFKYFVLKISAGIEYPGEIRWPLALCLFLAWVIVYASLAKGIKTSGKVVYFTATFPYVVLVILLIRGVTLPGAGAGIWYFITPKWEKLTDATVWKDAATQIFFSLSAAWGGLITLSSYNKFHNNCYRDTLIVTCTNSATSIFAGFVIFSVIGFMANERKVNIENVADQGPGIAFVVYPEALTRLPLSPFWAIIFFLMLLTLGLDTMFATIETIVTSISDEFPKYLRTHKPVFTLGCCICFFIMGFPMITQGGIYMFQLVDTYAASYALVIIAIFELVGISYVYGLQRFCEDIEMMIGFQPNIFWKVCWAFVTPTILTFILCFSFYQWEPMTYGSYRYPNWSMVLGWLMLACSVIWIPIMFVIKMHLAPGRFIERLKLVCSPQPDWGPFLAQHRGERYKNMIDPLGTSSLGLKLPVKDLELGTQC
In words: [14C]glycine uptake assay in HEK-GlyT-2 transfected cells. The assay is classed as cell-based. To be noted: HEK-GlyT-2 cells.

Setting [3] is: JAR cells, [14C]glycine 5 μM, 3 hour incubation, read-out: GlyT-1 IC50.

For `CCCS(=O)(=O)N1CCN(C2(CNC(=O)c3ccc(Cl)cc3C(F)(F)F)CCC(F)(F)CC2)CC1` [compound 245, 4-Chloro-N-((4,4-difluoro-1-(4-(propylsulfonyl)piperazin-1-yl)cyclohexyl)methyl)-2-(trifluoromethyl)benzamide Hydrochloride], the IC50 in assay [1] (setting [3]) is 18 nM; in assay [2], > 75000 nM.

For `Nc1cccc(Cl)c1C(=O)NCC1(N2CCN(S(=O)(=O)c3ccccc3)CC2)CCCCC1` [compound 89, 2-Amino-6-chloro-N-((1-(4-(phenylsulfonyl)piperazin-1-yl)cyclohexyl)methyl) benzamide Hydrochloride], the values for the IC50 in assay [1] (setting [3]) and in assay [2] were 2290 nM and > 75000 nM, respectively.

Regarding `CCCS(=O)(=O)N1CCN(C2(CNC(=O)c3cccc(C(F)(F)F)c3)CCCCC2)CC1` [compound 28, N-((1-(4-(Propylsulfonyl)piperazin-1-yl)cyclohexyl)methyl)-3-(trifluoromethyl) benzamide Hydrochloride], the IC50 was 523 nM in assay [1] (setting [3]) and > 75000 nM in assay [2].

Turning to `CC1CN(C2(CNC(=O)c3ccc(C(F)(F)F)cc3Cl)CCC(F)(F)CC2)CCN1S(=O)(=O)c1cn(C)nn1` (racemic) [compound 227, (±)-2-Chloro-N-((4,4-difluoro-1-(3-methyl-4-(1-methyl-1H-1,2,3-triazol-4-ylsulfonyl)piperazin-1-yl)cyclohexyl)methyl)-4-(trifluoromethyl)benzamide Hydrochloride], the IC50 in assay [1] (setting [3]) is 7 nM; in assay [2], > 75000 nM.

Consider `CCS(=O)(=O)N1CCN(C2(CNC(=O)c3c(Cl)cc(C(F)(F)F)cc3Cl)CCC(F)(F)CC2)CC1` [compound 207, 2,6-Dichloro-N-((1-(4-(ethylsulfonyl)piperazin-1-yl)-4,4-difluoro-cyclohexyl)methyl)-4-(trifluoromethyl) benzamide Hydrochloride], for which the IC50 was 64 nM in assay [1] (setting [3]) and > 75000 nM in assay [2].

As for `O=C(NCC1(N2CCC(S(=O)(=O)CC3CC3)CC2)CCCCC1)c1ccc(Cl)cc1Cl` [compound 200, 2,4-Dichloro-N-((1-(4-(cyclopropylmethyl-sulfonyl)piperidin-1-yl)cyclohexyl)methyl) benzamide Hydrochloride], the results for the IC50 in assay [1] (setting [3]) and in assay [2] were 1080 nM and > 75000 nM, respectively.

Consider `CCCS(=O)(=O)N1CCN(C2(CNC(=O)c3c(OC)cc(F)cc3SC)CCCC2)CC1` [compound 74, 4-Fluoro-2-methoxy-6-(methylthio)-N-((1-(4-(propylsulfonyl)piperazin-1-yl)cyclopentyl)methyl) benzamide Hydrochloride], for which the IC50 was 131 nM in assay [1] (setting [3]) and > 75000 nM in assay [2].

As for `Cn1cnc(S(=O)(=O)N2CCN(C3(CNC(=O)c4ccccc4C(F)(F)F)CCC(F)(F)CC3)CC2)c1` [compound 176, N-((4,4-Difluoro-1-(4-(1-methyl-1H-imidazol-4-ylsulfonyl)piperazin-1-yl)cyclohexyl)methyl)-2-(trifluoromethyl)benzamide Hydrochloride], the IC50 in assay [1] (setting [3]) stood at 3 nM; in assay [2] it was 69200 nM.

Take `CCCS(=O)(=O)N1CCN(C2(CNC(=O)c3ccc(C(F)(F)F)cc3)CCCCCC2)CC1` [compound 61, N-((1-(4-(Propylsulfonyl)piperazin-1-yl)cycloheptyl)methyl)-4-(trifluoromethyl) benzamide Hydrochloride]: the figures for the IC50 in assay [1] (setting [3]) and in assay [2] were 105 nM and 28000 nM, respectively.

Take `CCCS(=O)(=O)N1CCN(C2(CNC(=O)c3c(C)cccc3F)CCCCC2)CC1` [compound 49, 2-Fluoro-6-methyl-N-((1-(4-(propylsulfonyl)piperazin-1-yl)cyclohexyl)methyl) benzamide Hydrochloride]: the IC50 in assay [1] (setting [3]) was 16 nM; in assay [2], > 75000 nM.

`Cn1cc(S(=O)(=O)N2CCN(C3(CNC(=O)c4cc(F)c(Cl)cc4Cl)CCC(F)(F)CC3)CC2)nn1` [compound 231, 2,4-Dichloro-N-((4,4-difluoro-1-(4-(1-methyl-1H-1,2,3-triazol-4-ylsulfonyl)piperazin-1-yl)cyclohexyl)methyl)-5-fluorobenzamide Hydrochloride]: the IC50 in assay [1] (setting [3]) is 1 nM; in assay [2] it was > 75000 nM.

On to `O=C(NCC1(N2CCN(S(=O)(=O)CC3CC3)CC2)CCCCC1)c1ccc(Cl)cc1Cl` [compound 84, 2,4-Dichloro-N-((1-(4-(cyclopropylmethyl-sulfonyl)piperazin-1-yl)cyclohexyl)methyl) benzamide Hydrochloride], for which the values for the IC50 in assay [1] (setting [3]) and in assay [2] were 56 nM and > 75000 nM, respectively.

For `CCCS(=O)(=O)N1CCN(C2(CNC(=O)c3c(OC)cc(C(F)(F)F)cc3C(F)(F)F)CCCCC2)CC1` [compound 21, 2-Methoxy-N-((1(1-(4-(propylsulfonyl)piperazin-1-yl)cyclohexyl)methyl)-4,6-bis(trifluoromethyl)benzamide Hydrochloride], the IC50 in assay [1] (setting [3]) stood at 4 nM; in assay [2], 39000 nM.

Turning to `CCCS(=O)(=O)N1CCN(C2(CNC(=O)c3cccc(C(F)(F)F)c3Cl)CCCCC2)CC1` [compound 22, 2-Chloro-N-((1-(4-(propylsulfonyl)piperazin-1-yl)cyclohexyl)methyl)-3-(trifluoromethyl) benzamide Hydrochloride], the IC50 in assay [1] (GlyT-1 IC50 (nM)) amounted to 77 nM; in assay [2], 41300 nM.

With `CCS(=O)(=O)N1CCN(C2(CNC(=O)c3ccc(C(F)(F)F)cc3Cl)CCC(F)(F)CC2)CC1` [compound 203, 2-Chloro-N-((1-(4-(ethylsulfonyl)piperazin-1-yl)-4,4-difluorocyclohexyl)methyl)-4-(trifluoromethyl) benzamide Hydrochloride], the IC50 was 94 nM in assay [1] (setting [3]) and > 75000 nM in assay [2].

As for `CCCS(=O)(=O)N1CCN(C2(CNC(=O)c3ccccc3C(F)(F)F)CCCCC2)CC1` [compound 50, N-((1-(4-(Propylsulfonyl)piperazin-1-yl)cyclohexyl)methyl)-2-(trifluoromethyl)benzamide Hydrochloride], the 50% inhibitory concentration (IC50) was 48 nM in assay [1] (setting [3]) and > 75000 nM in assay [2].

Consider `CCCS(=O)(=O)N1CCN(C2(CNC(=O)c3ccc(Cl)cc3Cl)CCCCC2)CC1` [compound 2, 2,4-Dichloro-N-((1-(4-(propylsulfonyl)piperazin-1-yl)cyclohexyl)methyl)benzamide Hydrochloride], for which the IC50 in assay [1] (setting [3]) was determined as 22 nM; in assay [2] it was 22700 nM.

Turning to `Cc1cc(F)ccc1C(=O)NCC1(N2CCN(S(=O)(=O)c3cn(C)cn3)CC2)CCCCC1` [compound 102, 4-Fluoro-2-methyl-N-((1-(4-(1-methyl-1H-imidazol-4-ylsulfonyl)piperazin-1-yl)cyclohexyl)methyl) benzamide Hydrochloride], the IC50 was 10 nM in assay [1] (setting [3]) and > 75000 nM in assay [2].

With `CCCS(=O)(=O)N1CCN(C2(CNC(=O)c3c(C)cccc3C)CCOCC2)CC1` [compound 120, 2,6-Dimethyl-N-((4-(4-(propylsulfonyl)piperazin-1-yl)tetrahydro-2H-pyran-4-yl)methyl)benzamide Hydrochloride], the IC50 in assay [1] (setting [3]) worked out at 175 nM; in assay [2] it was 41300 nM.

With `COc1cc(F)cc(C)c1C(=O)NCC1(N2CCN(S(=O)(=O)c3cn(C)nn3)CC2)CCCC1` [compound 112, 4-Fluoro-2-methoxy-6-methyl-N-((1-(4-(1-methyl-1H-1,2,3-triazol-4-ylsulfonyl)piperazin-1-yl)cyclopentyl)methyl) benzamide Hydrochloride], the IC50 was 14 nM in assay [1] (setting [3]) and > 75000 nM in assay [2].
